US20130136693A1, “Crystal Forms of 2--Adenosine” (King Pharmaceuticals Research and Development, Inc, priority 2008, published 2013)
One block for each compound: values may come before it.

How the values were obtained:
Format in all cases: physicochemical
[1] = competitive slurry experiments (XRPD of remaining solids); settings: 25 °C, 24 h
Description: Two different types of slurry experiments may be performed, i.e., competitive and noncompetitive slurry experiments. Competitive slurry experiments are performed by mixing excess amounts of non-solvated polymorphic forms together in different solvents and agitating the mixture isothermally. These types of slurry experiments may be used to determine which form is more thermodynamically stable (under the conditions tested).
When competitive slurry experiments are performed, the nucleation step is generally bypassed. Because the two (or more) forms placed into contact with the solvent have different solubilities, particles of the form with the lower solubility grow at the expense of the more soluble form. This occurs since the more soluble form is saturated, and the less soluble form is supersaturated.
(§1) In general, slurry experiments are performed by agitating approximately 0.01 g to 2.5 g of material in 0.5 mL to 50 mL of slurry solvent. Uniform agitation and temperature control are accomplished using, e.g., Reacti-Therm heating modules and small Teflon coated stir bars. The duration of the slurry experiments is often around 24 h (although in some cases the experiments may be continued for several weeks). At the end of the slurry experiment, remaining undissolved solids are collected by vacuum filtration. To avoid inducing any type of physical change, the solids are not subjected to additional drying before the XRPD analysis.
In addition to the pure solvent noncompetitive slurry experiments performed, three competitive slurry experiments in Table 8 are performed at room temperature. These slurry experiments are composed of an approximately 50/50 mixture of Form I and Form II solids. Three different solvents are used to perform the competitive slurry experiments: DCM, i-PrOAc and EtOAc.

[2] = drying of crystals, crystal form checked by XRPD
Description: Furthermore, TGA and ^1H-NMR indicate that Form I crystals may also contain approximately 4 wt-% of ethanol (FIG. 1A).
In accordance with the TG data, after a few minutes at 125° C. in the KF oven, most of the weight loss from ethanol and water is complete affording Form I crystals in an anhydrous form (FIG. 1B). […] A comparison of the calorimetric behavior of the anhydrous Form I crystals and the Form I crystals containing residual solvents (“undried”) is summarized in Table 1:
Form II crystal form may be obtained in a hydrated form or in an anhydrous form. For example, slow crystallization from lower alcohols such as MeOH and EtOH in the presence of residual water provides hydrated Form II crystals.

[3] = non-competitive slurry experiments (XRPD of remaining solids); settings: for Final Form (XRPD): 4 h
Description: In an alternative aspect of the present invention, solid forms of binodenoson may be suspended in a suitable solvent at a temperature of at least 10° C., preferably at a temperature ranging from about 25° C. to about 60° C. Under suitable conditions, a suspension/slurry results in which particles of solid are dispersed, and remain incompletely dissolved in the solvent. Preferably, the solids are maintained in a state of suspension by agitation, e.g., by shaking or stirring. The suspension/slurry is then kept at a temperature of 10° C. or higher, e.g., at a temperature ranging from about 25° C. to about 60° C., for a time sufficient to effect transformation of the starting solids into product crystals. The product crystals may then be isolated and dried using conventional methods in the art. In the presence of water, all crystal forms of binodenoson will convert to Form II hydrate.
Noncompetitive slurry experiments are useful for identifying solvent mediated conditions useful for converting one crystalline form to another. In these experiments, excess material of a single crystal form is mixed with a solvent under isothermal conditions. These experiments rely on differences in solubility of the different polymorphic forms. […] Essentially, when a polymorph is suspended in a suitable solvent, a saturated solution phase (eventually) results. The solution phase is saturated with respect to the polymorphic form dissolved.
The results of these experiments often depend on nucleation kinetics and the presence of impurities that may inhibit nuclei growth of other stable crystalline modifications.
as §1

[4] = moisture sorption analysis; settings: relative humidity of about 94%, 14 days, 25° C.
[5] = solubility studies in EtOH
Description: In the current set of results, Form I crystals readily transforms into Form II crystals in EtOAc at 60° C. for 4 h (experiment No. 7). […] Thus, Form I appears to convert to Form II, but really converts to Form II hydrate. […] Thus, in the presence of residual water, Form II is obtained in the isostructural hydrate form, whereas in a completely anhydrous system, Form I results.

Final Form (XRPD) ([1]; experiment No. 11: DCM): II^b
Final Form (XRPD) ([1]; experiment No. 12: i-PrOAc): II^b
Final Form (XRPD) ([1]; experiment No. 13: EtOAc): II^b
SMILES: Nc1nc(NN=CC2CCCCC2)nc2c1ncn2[C@@H]1O[C@H](CO)C(O)C1O (stereo partly drawn) [Form I & II, 2-{2-[(cyclohexyl)methylene]-hydrazino}adenosine]

change of crystalline form upon drying (XRPD) ([2]; drying under nitrogen, 125° C. in the KF oven): does not change significantly
Final Form (XRPD) ([3]; experiment No. 1: EtOAc, 40 °C): amorphous
Final Form (XRPD) ([3]; experiment No. 2: EtOH, 40 °C): all dissolved
Final Form (XRPD) ([3]; experiment No. 4: i-Pr2O, 40 °C): amorphous
Final Form (XRPD) ([3]; experiment No. 5: MeOH, 40 °C): all dissolved
Final Form (XRPD) ([3]; experiment No. 7: EtOAc, 60 °C): II^b
hygroscopicity [4]: non-hygroscopic
SMILES: Nc1nc(NN=CC2CCCCC2)nc2c1ncn2[C@@H]1O[C@H](CO)[C@@H](O)[C@H]1O [Form I, 2-{2-[(cyclohexyl)methylene]-hydrazino}adenosine]
thermodynamic stability relative to Form II ([5]; when water is not present, from solubilities): thermodynamically more stable than Form II

change of XRPD pattern upon drying ([2]; drying the hydrated crystals): does not change the XRPD pattern
solubility of the isostructural hydrate ([5]; presence of residual water, deduced): lower solubility than that of Form I
SMILES: Nc1nc(NN=CC2CCCCC2)nc2c1ncn2[C@@H]1O[C@H](CO)[C@@H](O)[C@H]1O [Form II hydrate, 2-{2-[(cyclohexyl)methylene]-hydrazino}adenosine]

solubility compared with Form I ([5]; anhydrous Forms I and II compared in EtOH): much higher solubility
SMILES: Nc1nc(NN=CC2CCCCC2)nc2c1ncn2[C@@H]1O[C@H](CO)[C@@H](O)[C@H]1O [Form II, 2-{2-[(cyclohexyl)methylene]-hydrazino}adenosine]
behaviour during solubility studies ([5]; dry EtOH): completely dissolve and recrystallize as Form I

stability relative to Form I ([3]; at 40° C., from experiment No. 6 (DCM slurry)): more stable than Form I
SMILES: Nc1nc(NN=CC2CCCCC2)nc2c1ncn2[C@@H]1O[C@H](CO)[C@@H](O)[C@H]1O [Form V, 2-{2-[(cyclohexyl)methylene]-hydrazino}adenosine]

crystal form after moisture sorption analysis [4]: remains the same
weight gain in moisture sorption analysis [4]: approximately 1.3%
SMILES: Nc1nc(NN=CC2CCCCC2)nc2c1ncn2[C@@H]1O[C@H](CO)[C@@H](O)[C@H]1O [anhydrous Form I, 2-{2-[(cyclohexyl)methylene]-hydrazino}adenosine]
